Experimental data from US20220087990A1, “APPLICATION OF RIFAMYCIN-QUINOLIZIDONE CONJUGATE MOLECULE AND PHARMACEUTICALLY ACCEPTABLE SALT THEREOF” (priority 2019, published 2022).
Like-named read-outs stand apart in the source and are kept apart here.

What was measured:
Format in all cases: in vivo, Staphylococcus aureus; Balb/c mice
[1] = test system: Staphylococcus aureus CB1406 (wild type); conditions: for mean Log10 CFU/catheter / log10 CFU reduction in bacterial counts: CB1406; for log10 CFU reduction in bacterial counts: rebound regimen
Method: (§1) Test Drug: rifamycin-quinolizidone conjugate molecule I was provided by TenNor Therapeutics, Ltd., and was stored at −20° C. Other test compounds and reagents are commercially available. […] For remaining test agents, aqueous vehicles of sterile water, 5% sodium bicarbonate or 0.9% normal saline were added to the compound shown in formula I. The rifamycin-quinolizidone conjugate molecule formulation shown in formula I was administered at 30 mg/kg.
(§2) Bacteria: The bacteria used were biofilm forming Staphylococcus aureus strains. These were a wild-type parent biofilm strain CB1406 and it's isogenic fluoroquinoline-resistant derivatives CB1823 (parC^S80F), CB1840 (norA^up) and CB1857 (parC^S80F30 norA^up). Minimal inhibit concentrations (MICs) were determined by broth microdilution assays recommended by CLSI.
(§3) Test animals: female 5-6 week old Balb/c mice were used in this embodiment. The mice had free access to food and water during the course of this test and animal procedures were compliant with UNTHSC Institutional Animal Care and Use Committee (IACUC) guidelines.
(§4) In vitro preparation of colonized implants: Teflon venous catheters (14-Guage AbboCath-T #271-1000 or Braun Introcan #425 2594) were cut into 1 cm segments, sterilized by soaking in 70% ethanol for 15 minutes, dried under UV light for 20 minutes followed by aseptic placement in sterile 1.5 mL polypropylene tubes warmed to 37° C. Inocula were prepared by growing overnight broth cultures, which were diluted in 1:10 in tryptic soy broth plus 0.25% glucose (TSBG) and incubated with 250 rpm at 37° C. for 1 hour. Cultures were diluted to 1.0E+0^6 CFU/mL in 37° C. TSBG, 1 mL was added to each catheter tube, incubated at 37° C. without shaking for an additional 2.5 hours, and then cooled to 18° C. to slow growth until implant surgeries were completed.
(§5) Formation and treatments of subcutaneous implant infections: the mice were anesthetized with isoflurane vapors (4 L/min). Each flank was shaved, sterilized with ethanol/betadine and two 3 mm incisions made. Subcutaneous pockets were excavated, then catheter segments pre-colonized with adherent bacteria inserted into the pockets closed with surgical staples. The mice were returned to their cages and regularly monitored for adverse reactions. Treatments were initiated one week post surgery (bacterial colonization and biofilm formation) twice daily by intraperitoneal injections (IP) for 7 days, 7 days treatment plus a 7 days rebound period with no treatment and 7 days treatment plus 7 days rebound+7 days re-treatment with 5 mice (total 10 implants) per treatment or sampling group. Implant-associated bacteria were monitored by sampling colonized catheter segments during the course of implant surgeries and at regular intervals for up to 28 days post infection.
(§6) Sampling of infected implants: infected mice were euthanized by CO2 inhalation, then flanks were sterilized with 70% ethanol, and the infected catheter segments were excised into 1 mL of phosphate buffered saline pH 7.2 (1×PBS). Bacteria that adhered to the internal surfaces of explanted catheter segments were mechanically disrupted (aseptically) by repeated draws/dispenses of 200 μL 1×PBS from a micropipette tip inserted into catheter lumens, followed by 5 min vortexing at high speed. Explanted samples were then snap frozen in dry ice/ethanol and stored at −80° C. until CFU counts were determined.
(§7) CFU count determination: the catheters were rapidly thawed in a 37° C. water bath, and vortexed for 2 minutes, serially diluted and spotted (8 μL) on agar plates. Viable cell counts for efficacy were determined by plating on drug free Charcoal or MHII agar plates. […] The detection limit for all CFU determinations was less than or equal to 2.09 log10 CFU/implant.
(§8) The counts were multiplied by the serial dilution factor. The resulting raw values were converted to log10 CFU for calculation of means and standard deviations.

[2] = test system: quinolone-resistant Staphylococcus aureus CB1823 (parC^S80F); conditions: for log10 CFU reduction in bacterial counts: rebound regimen
Method: as §1, §2, §3, §4, §5, §6, §7, §8

[3] = test system: quinolone-resistant Staphylococcus aureus CB1840 (norA^up); conditions: for log10 CFU reduction in bacterial counts: rebound regimen
Method: as §1, §2, §3, §4, §5, §6, §7, §8

[4] = test system: S. aureus CB1406, CB1823, CB1840 and CB1857; conditions: rebound dosing regimen, mean over strains
Method: as §1, §2, §3, §4, §5, §6, §7, §8

[5] = test system: quinolone-resistant Staphylococcus aureus CB1823 (parC^S80F); conditions: I 30 mg/kg, rifampicin+levofloxacin 20+25 mg/kg
[6] = test system: quinolone-resistant Staphylococcus aureus CB1840 (norA^up); conditions: I 30 mg/kg, rifampicin+levofloxacin 20+25 mg/kg
[7] = test system: Staphylococcus aureus CB1857 (parC^S80F+norA^up); experiment: Mouse subcutaneous catheter implant biofilm infection model
Method: as §1, §2, §3, §4, §5, §6, §7, §8

[8] = following additional 7 treatment days
[9] = rebound treatment regimen, Day 21 (7 days of rebound)
[10] = rebound treatment regimen, Day 28 (7 days of re-treatment)
[11] = 14-day treatment regimen, Day 7 (initiation of treatment)
[12] = rebound treatment regimen, Day 7 (initiation of treatment)
[13] = rebound treatment regimen, Day 14 (after 7 days of administration), IP bid, I 30 mg/kg, rifampicin+levofloxacin 20+25 mg/kg
[14] = 14-day treatment regimen, Day 21, IP bid

## CO[C@H]1/C=C/O[C@@]2(C)Oc3c(C)c(O)c4c(O)c(c(/C=N/N5CCC(N(C)C6([C@@H]7CCN(c8c(F)cn9c(=O)c(C(=O)O)cc(C%10CC%10)c9c8C)C7)CC6)CC5)c(O)c4c3C2=O)NC(=O)/C(C)=C\C=C\[C@H](C)[C@H](O)[C@@H](C)[C@@H](O)[C@@H](C)[C@H](OC(C)=O)[C@@H]1C [I]
[1]; 14-day treatment regimen, Day 7 (before treatment)
  mean Log10 CFU/catheter: 6.82 Log10 CFU/catheter
[1]; following 7 days of treatment
  log10 CFU reduction in bacterial counts: 2.1 log10 CFU
[1]; following 7 days untreated
  log10 CFU reduction in bacterial counts: 4.6 log10 CFU
[1]; [8]
  log10 CFU reduction in bacterial counts: 4.7 log10 CFU
[1]; rebound treatment regimen, Day 7 (before treatment)
  mean Log10 CFU/catheter: 6.82 Log10 CFU/catheter
[1]; [9]
  mean Log10 CFU/catheter: 2.20 Log10 CFU/catheter
[1]; [10]
  mean Log10 CFU/catheter: 2.10 Log10 CFU/catheter
[1]; mouse, in vivo
  log reduction in bacterial colony counts at the catheter site: 4.6 log
[2]; [11]
  mean Log10 CFU/catheter: 7.03 Log10 CFU/catheter
[2]; following 7 days of treatment
  log10 CFU reduction in bacterial counts: 2.4 log10 CFU
[2]; following 7 days untreated
  log10 CFU reduction in bacterial counts: 4.4 log10 CFU
[2]; [8]
  log10 CFU reduction in bacterial counts: 4.5 log10 CFU
[2]; [12]
  mean Log10 CFU/catheter: 7.03 Log10 CFU/catheter
[2]; [13]
  mean Log10 CFU/catheter: 4.61 Log10 CFU/catheter
[2]; [9]
  mean Log10 CFU/catheter: 2.61 Log10 CFU/catheter
[2]; [10]
  mean Log10 CFU/catheter: 2.70 Log10 CFU/catheter
[3]; [11]
  mean Log10 CFU/catheter: 7.01 Log10 CFU/catheter
[3]; following 7 days of treatment
  log10 CFU reduction in bacterial counts: 2.4 log10 CFU
[3]; following 7 days untreated
  log10 CFU reduction in bacterial counts: 4.9 log10 CFU
[3]; [8]
  log10 CFU reduction in bacterial counts: 4.9 log10 CFU
[3]; [12]
  mean Log10 CFU/catheter: 7.01 Log10 CFU/catheter
[3]; [13]
  mean Log10 CFU/catheter: 4.61 Log10 CFU/catheter
[3]; [9]
  mean Log10 CFU/catheter: 2.10 Log10 CFU/catheter
[3]; [10]
  mean Log10 CFU/catheter: 2.10 Log10 CFU/catheter
[4]; following 7 days of re-treatment
  Mean Log10 CFU reduction: 4.6 Log10 CFU
[4]; following 7 days of treatment
  Mean Log10 CFU reduction: 2.4 Log10 CFU
[4]; following 7 days untreated (rebound)
  Mean Log10 CFU reduction: 4.6 Log10 CFU
[5]; [14]
  mean Log10 CFU/catheter: 2.70 Log10 CFU/catheter
[5]; 14 consecutive days bid
  log reduction in bacterial counts at the catheter site: 4.3 log
[6]; [14]
  mean Log10 CFU/catheter: 2.10 Log10 CFU/catheter
[6]; 14 consecutive days bid
  log10 CFU reduction in bacterial counts at the catheter site: 4.9 log10 CFU
[7]; [11]
  mean Log10 CFU/catheter: 6.81 Log10 CFU/catheter
[7]; 14-day treatment regimen, Day 21, IP bid, I 30 mg/kg, rifampicin+levofloxacin 20+25 mg/kg
  mean Log10 CFU/catheter: 2.30 Log10 CFU/catheter
[7]; 14 consecutive days bid, I 30 mg/kg, rifampicin+levofloxacin 20+25 mg/kg
  log10 CFU reduction in bacterial counts at the catheter site: 4.5 log10 CFU
[7]; rebound regimen, following 7 days of treatment
  log10 CFU reduction in bacterial counts: 2.5 log10 CFU
[7]; [12]
  mean Log10 CFU/catheter: 6.81 Log10 CFU/catheter
[7]; [13]
  mean Log10 CFU/catheter: 4.26 Log10 CFU/catheter
[7]; [9]
  mean Log10 CFU/catheter: 2.40 Log10 CFU/catheter
[7]; [10]
  mean Log10 CFU/catheter: 2.45 Log10 CFU/catheter
